Columns and labels:
Haemolysis assay = format: cell-based; conditions: human red blood cells (erythrocyte suspension), 1 h at 37 ℃, read-out: Haemolysis rate; for hemolysis at 1 h, 12.5 μg/mL: 12.50 μg/mL
Method: The surfactant may be absorbed and penetrate to the cell membrane, where it makes osmotic phenomena by altering the permeability of membrane, which in turn causes the cellular lysis. Haemolysis assay gives quantitative estimation about haemoglobin release when red blood cells are treated with QASs. Haemolytic assay of QASs at different concentration was carried out in Table 4. […] For 5a-b, 6a-b, 10a-c, 13a-b, and 16a-d, their safe concentration can more than 100 μg/mL. Compared with BZK and CA, all QASs were safe to be used when they circulated into the blood in low concentration. […]
The human blood from healthy individual was collected in a tube containing heparin, and the blood was centrifuged at 1500 rpm for 3 min. The […] (Erythrocyte) was collected and plasma was discarded and further washed five times with sterile normal saline solution. Then the cells were diluted to 0.2% of their volume with normal saline solution. 2 mL of the diluted red blood cells suspension was mixed with (a) 2 mL of normal salinesolution as a negative control; (b) 2 mL of distilled water as a positive control; (c) 2 mL of QAS solution which were dispersed into normal saline solution at the different concentrations ranging from 3.125 to 400 μg/mL. Then the mixtures were shaken well and incubated for 1 h at 37 ℃. Finally, the mixtures were centrifuged for 5min at 2000 r/min and the absorbances of supernatant at 540 nm was measured by a microplate reader (Multiskan MK3-Thermo Labsystems, USA). The hemolysis ratio was calculated as follows: The hemolysis ratio(%) = (OD Sample−OD Negative)/(OD Positive −OD Negative) ×100%. The hemolysis evaluation of QASs was performed in triplicate and results were expressed as the mean ± SD.

Cytotoxicity, MTT assay = format: cell-based, human; conditions: human, MTT, 24 h
Method: These six series of antimicrobial compounds may be applied to daily or clinical disinfectants for unbroken skin and trauma, or agricultural fungicides alternatively. Thus, their cytotoxicity for skin or body tissues are crucial. In this study, the cytotoxicity of target compounds was evaluated for human immortalised epidermal (HaCat) and human normal liver (LO2) cell line using MTT assay. […] The IC50 values of 5a, 6a, 10a, 16a, 16 b were about more than 50 μg/mL for LO2 and HaCat.
Cytotoxicity Testing with MTT Method
Human immortalized epidermal cells (HaCat) line were cultured in Dulbecco’s modified Eagle’s medium containing 10% fetal bovine serum, 1% penicillin, and 1% streptomycin at 37°C in a 5% CO2/95% air incubator MCO-15AC (SANYO). Human normal liver cells (LO2) line were cultured in Roswell Park Memorial Institute medium containing 10% fetal bovine serum, 1% penicillin, and 1% streptomycin at 37°C in a 5% CO2/95% air incubator MCO-15AC (SANYO). HaCat or LO2 cells in 96-well plate were adjusted to 1.0 × 10^5 cells mL-1 and cells were passed and cell supernatant was pour out before plating on glass slide at 37°C, 5% CO2 for 24 h. Cells were pretreated with 100 μL QAS for 24 h and cell supernatant with QAS was pour out and washed with PBS buffer system. Then, the cells were treated with the MTT solution (MTT, 3-(4,5-dimethythiazol-2-yl)-2,5-diphenyl-tetrazolium bromide, 20 μL, 5 mg/mL) for 4 h. The dark blue formazan crystal formed in the intact cells was solubilized with dimethyl sulfoxide, and absorbance at 570 nm was measured with a microplate reader (Multiskan MK3-Thermo Labsystems, USA). The results were expressed as percentage of the control value from the normal cells without treatments of QAS. […]

β-H-tococcus = assay: MIC, broth tube dilution; format: cell-based; conditions: 12 h, 37℃, read-out: Minimal inhibitory concentration (MIC)
Source text: (§1) In this paper, antimicrobial activities of 24 QASs were detected by quantitative tests. […] Benzalkonium chloride (BZK) and chlorhexidine acetate (CA) was selected as positive controls. Representative compound POT-C12QAS (2) which synthesised and evaluated in previous work was also taken as a reference compound in MIC, MBC and cytotoxicity tests. […]
(§2) agriculture were used as target pathogens in this study, including three strains of Gram-positive bacteria (S. Aureus, α-H-tococcus, β-H-tococcus), three strains of Gram-negative bacteria (E. coli, P. aeruginosa, Proteus vulgaris) and four strains of fungi (Canidia albicans, Cytospora mandshurica, Physalospora piricola, Aspergillus niger). The antimicrobial tests were assayed, according to standard CLSI methods for antimicrobial dilution susceptibility tests to measure the minimum inhibitory concentration (MIC) and minimum bactericidal concentration (MBC)2.
(§3) A broth tube dilution method was followed to determine the MIC values for all the screened compounds against the micro-organisms, and for comparison benzalkonium chloride (BZK) and chlorhexidine acetate (CA) was used as a reference. For sample preparation, each of the test compounds and reference were dissolved in DMSO or sterile water at a concentration of 1600 μg/mL, and further dilutions of the compounds and reference in culture medium MHB (Muller-Hinton Broth) were prepared at the required quantities of 400, 200, 100 etc., down to 0.39 μg/mL. Bacterial strains and fungal strains were maintained on MHA (Muller-Hinton Agar) medium at 37℃ or 28 ℃ for 12 h or 72h, respectively. The microbial inocula were prepared by suspension in 10 mL of culture medium for colonies from culture on MHA. The cell density of each inoculum was adjusted in culture medium of a 0.5 McFarland standard (1-2×10^8 CFU/mL). The final amount applied was 10^5 CFU/mL for bacteria and fungi. The microbial inocula were added to the twofold diluted samples. One growth control tube was prepared […] the addition of the compound and one blank tube was prepared without the addition of the microorganism. MIC values were read after incubation at 37℃ or 28 ℃ for bacterial and fungal strains, respectively. After 12 h or 72h, the last tube with no growth of micro-organisms was recorded to represent the MIC value expressed in μg/ml. All experiments were carried out three times. […]

α-H-tococcus = assay: MIC, broth tube dilution; format: cell-based; conditions: 12 h, 37℃, read-out: Minimal inhibitory concentration (MIC)
Source text: as §1, §2, §3

Canidia albicans = assay: MIC, broth tube dilution; format: cell-based; conditions: 72 h, 28 ℃, read-out: Minimal inhibitory concentration (MIC)
Source text: as §1, §2, §3

Aspergillus niger = assay: MIC, broth tube dilution; format: cell-based; conditions: 72 h, 28 ℃, read-out: Minimal inhibitory concentration (MIC)
Source text: as §1, §2, §3

P. aeruginosa = assay: MIC, broth tube dilution; format: cell-based; conditions: Pseudomonas aeruginosa, 12 h, 37℃, read-out: Minimal inhibitory concentration (MIC)
Source text: as §1, §2, §3

Proteus vulgaris = assay: MIC, broth tube dilution; format: cell-based; conditions: 12 h, 37℃, read-out: Minimal inhibitory concentration (MIC)
Source text: as §1, §2, §3

Physalospora piricola = assay: MIC, broth tube dilution; format: cell-based; conditions: 72 h, 28 ℃, read-out: Minimal inhibitory concentration (MIC)
Source text: as §1, §2, §3

Cytospora mandshurica = assay: MIC, broth tube dilution; format: cell-based; conditions: Cytospora, 72 h, 28 ℃, read-out: Minimal inhibitory concentration (MIC)
Source text: as §1, §2, §3

S. aureus = assay: MIC, broth tube dilution; format: cell-based; conditions: Staphylococcus aureus, 12 h, 37℃, read-out: Minimal inhibitory concentration (MIC)
Source text: as §1, §2, §3

E. coli = assay: MIC, broth tube dilution; format: cell-based; conditions: Escherichia coli, 12 h, 37℃, read-out: Minimal inhibitory concentration (MIC)
Source text: as §1, §2, §3

[1] = HaCat human immortalised epidermal cells, HaCat cells
[2] = LO2 human normal liver cells, LO2 cells

Row | Structure (SMILES) | hemolysis at 1 h, 6.25 μg/mL (Haemolysis assay) | hemolysis at 1 h, 12.5 μg/mL (Haemolysis assay) | hemolysis at 1 h, 25 μg/mL (Haemolysis assay) | hemolysis at 1 h, 50 μg/mL (Haemolysis assay) | hemolysis at 1 h, 100 μg/mL (Haemolysis assay) | hemolysis at 1 h, 200 μg/mL (Haemolysis assay) | hemolysis at 1 h, 400 μg/mL (Haemolysis assay) | IC50 at 24 h (Cytotoxicity, MTT assay; [1]) | IC50 at 24 h (Cytotoxicity, MTT assay; [2]) | MIC (β-H-tococcus) | MIC (α-H-tococcus) | MIC (Canidia albicans) | MIC (Aspergillus niger) | MIC (P. aeruginosa) | MIC (Proteus vulgaris) | MIC (Physalospora piricola) | MIC (Cytospora mandshurica) | MIC (S. aureus) | MIC (E. coli) | IC50 at 24 h (Cytotoxicity, MTT assay; HaCat cells)
1 | C[N+](CCO)(CCO)CCCCCCCCCCCCSc1nnc(-c2ccccc2)o1 [Compound 2, reference compound] | 0.18 ± 0.05% | 0.42 ± 0.13% | 0.93 ± 0.41% | 4.11 ± 0.89% | 17.1 ± 2.34% | 82.8 ± 3.18% | 90.6 ± 4.23% | 18.3 ± 2.21 µg/mL | 14.2 ± 2.15 µg/mL | 6.25 µg/mL | 6.25 µg/mL | 6.25 µg/mL | 3.12 µg/mL | 12.5 µg/mL | 25 µg/mL | 3.12 µg/mL | 3.12 µg/mL | 6.25 µg/mL | 25 µg/mL | –
2 | C[N+](CCO)(CCO)CCCCCCCCCCCCSc1nnc(-c2ccc(C(F)(F)F)cc2)o1.[Br-] [Compound 6d] | 0.64 ± 0.19% | 1.05 ± 0.28% | 2.02 ± 3.45% | 4.85 ± 4.65% | 36.4 ± 6.35% | 85.6 ± 4.86% | 92.5 ± 3.87% | 5.25 ± 0.37 µg/mL | 5.86 ± 0.61 µg/mL | 3.12 µg/mL | 6.25 µg/mL | 12.5 µg/mL | 6.25 µg/mL | 50 µg/mL | 25 µg/mL | 1.56 µg/mL | 6.25 µg/mL | 6.25 µg/mL | 25 µg/mL | –
3 | C[N+](CCO)(CCO)CCCCCCSc1nnc(-c2ccc(F)cc2)o1 [Compound 5a] | 0.21 ± 0.03% | 0.53 ± 0.15% | 1.37 ± 0.87% | 1.54 ± 0.96% | 3.25 ± 1.23% | 6.21 ± 3.21% | 35.6 ± 4.87% | – | > 50 µg/mL | 25 µg/mL | 50 µg/mL | 50 µg/mL | 50 µg/mL | 100 µg/mL | 100 µg/mL | 12.5 µg/mL | 50 µg/mL | 100 µg/mL | 100 µg/mL | > 50 µg/mL
4 | C[N+](CCO)(CCO)CCCCCCCCCCCCSc1nnc(-c2ccc(F)cc2)o1 [Compound 5d] | 0.49 ± 0.12% | 0.87 ± 0.27% | 2.43 ± 0.82% | 4.81 ± 0.74% | 32.4 ± 6.78% | 66.7 ± 5.21% | 66.9 ± 4.12% | – | 6.95 ± 0.62 µg/mL | ~6.25 µg/mL | ~12.5 µg/mL | 12.5 µg/mL | 25 µg/mL | ~50 µg/mL | ~25 µg/mL | 3.12 µg/mL | 12.5 µg/mL | ~12.5 µg/mL | ~25 µg/mL | 6.14 ± 0.53 µg/mL
5 | C[N+](CCO)(CCO)CCCCCCSc1nnc(-c2ccc(C(F)(F)F)cc2)o1 [Compound 6a] | 0.15 ± 0.08% | 0.35 ± 0.17% | 0.51 ± 0.19% | 0.99 ± 0.12% | 3.38 ± 1.23% | 7.09 ± 2.89% | 41 ± 5.32% | – | > 50 µg/mL | 25 µg/mL | 50 µg/mL | 50 µg/mL | 25 µg/mL | 100 µg/mL | 100 µg/mL | 6.25 µg/mL | 12.5 µg/mL | 50 µg/mL | 50 µg/mL | > 50 µg/mL

Reference: PMC6010013, “Synthesis, physiochemical property and antimicrobial activity of novel quaternary ammonium salts” (Journal of Enzyme Inhibition and Medicinal Chemistry, 2017)
